Source: patent publication US8513233B2, “Pyrimidinyl-propionic acid derivatives and their use as PPAR agonists” (Shanghai Institute of Materia Medica, CAS, priority 2007, dated 2013)

Tests used:
Format in all cases: cell-based
PPAR-γ = target: T1, PPAR-γ (Homo sapiens, UniProt P37231); test: Transient transfection and transcription assay (luciferase reporter, U2OS cells); details: 24 h treatment
T1 construct: expressed in transfected cells; host or cells: U2OS cells, transiently transfected with pcDNA3.1 expression vectors (FuGene6)
T1 sequence (P37231 1-505): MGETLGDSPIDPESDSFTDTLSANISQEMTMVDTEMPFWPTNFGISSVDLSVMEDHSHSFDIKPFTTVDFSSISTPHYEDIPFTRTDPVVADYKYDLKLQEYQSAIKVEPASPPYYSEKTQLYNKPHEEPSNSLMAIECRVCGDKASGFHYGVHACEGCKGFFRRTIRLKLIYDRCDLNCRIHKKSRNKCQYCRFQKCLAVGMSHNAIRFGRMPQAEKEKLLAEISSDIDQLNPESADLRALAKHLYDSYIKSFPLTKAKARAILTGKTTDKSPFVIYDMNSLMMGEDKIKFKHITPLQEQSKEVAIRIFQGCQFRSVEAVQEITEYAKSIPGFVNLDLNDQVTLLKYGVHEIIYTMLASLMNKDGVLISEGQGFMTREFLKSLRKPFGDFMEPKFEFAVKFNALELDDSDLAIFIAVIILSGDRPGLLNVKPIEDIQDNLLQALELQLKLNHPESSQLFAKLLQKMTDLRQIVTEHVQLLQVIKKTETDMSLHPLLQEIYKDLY
T1 sequence (P19793 1-462 partner): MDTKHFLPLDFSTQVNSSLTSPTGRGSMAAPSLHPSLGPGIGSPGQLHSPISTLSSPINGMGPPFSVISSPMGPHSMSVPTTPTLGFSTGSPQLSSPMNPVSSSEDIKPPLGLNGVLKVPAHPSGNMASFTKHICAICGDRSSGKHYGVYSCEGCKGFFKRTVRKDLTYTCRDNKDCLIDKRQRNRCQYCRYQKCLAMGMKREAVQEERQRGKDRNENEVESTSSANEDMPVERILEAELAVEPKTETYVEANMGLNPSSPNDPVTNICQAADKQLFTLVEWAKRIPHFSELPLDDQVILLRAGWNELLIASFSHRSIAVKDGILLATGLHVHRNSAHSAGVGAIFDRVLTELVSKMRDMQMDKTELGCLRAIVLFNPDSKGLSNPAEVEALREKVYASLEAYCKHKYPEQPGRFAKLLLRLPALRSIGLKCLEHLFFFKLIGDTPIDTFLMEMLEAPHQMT
Protocol: cDNAs for Human RXR, PPAR were obtained by RTPCR from the human liver or adipose tissues. Amplified cDNAs were cloned into pcDNA3.1 expression vector and the inserts were confirmed by sequencing. U2OS cells were cultured in McCoy's 5A with 10% heat-inactivated fetal bovine serum in a humidified 5% CO2 atmosphere at 37° C. Cells were seeded in 96-well plates the day before transfection to give a confluence of 50-80% at transfection. A total of 60 ng of DNA containing 10 ng of hRXR, 10 ng of pCMV Gal, 10 ng of nuclear receptor expression vectors and 30 ng of the corresponding reporters were cotransfected per well using FuGene6 transfection reagent according to the manufacturer's instructions. […] The final concentration of DMSO in culture medium was 0.1%. […] Luciferase activity was monitored using the luciferase assay kit according to the manufacturers instructions. Light emission was read in a Labsystems Ascent Fluoroskan reader. To measure galactosidase activity to normalize the luciferase data, 50 IL of supernatant from each transfection lysate was transferred to a new microplate. Galactosidase assays were performed in the microwell plates using a kit from Promega and read in a microplate reader. Compounds were tested in five concentrations ranging from 0.01 to 10 μM. […] The results were expressed as means (SD).

SPC-A1 = test: Growth inhibition, modified MTT assay, SPC-A1; details: SPCA1, mean of 3 independent tests
Protocol: (§1) The growth inhibition was evaluated by the modified MTT assay. Briefly, the cells were seeded at 1×10^4 cells/well in 96-well plates (Falcon, Calif., USA), and incubated for 24 h in […] culture media with 10% FCS. The media were then replaced by serum-free medium. After 24 h, the media were placed in triplicate with grade concentrations of compounds. As controls, the cells were cultivated in DMEM/F12 only. The cells were then treated by MTT (Sigma, USA) assay, […] (5 g/L) for 4 h. After the removal of the supernatant, the purple-blue sediment was dissolved in 100 μL/well DMSO, and the optical densities were read on the multi-well scanning spectrophotometer (Labsystems Dragon, Finland) at 492 nm (A492). The growth inhibition rate (GIR) of the treated cells was calculated using Equation: GIR(%)={1−[A490/A490(control)]}×100% The results were also converted to IC50 (the compound concentration required for 50% growth inhibition of tumor cells), which were calculated by using the sigmoidal fitting model by the Origin 7.0 software (OriginLab, Northampton, Mass., USA). The mean IC50 was determined from the results of 3 independent tests.

T24 = test: Growth inhibition, modified MTT assay, T24; details: Homo sapiens, T-24, mean of 3 independent tests
Protocol: as §1

HepG2 = test: Growth inhibition, modified MTT assay, HepG2; details: Homo sapiens, mean of 3 independent tests
Protocol: as §1

MCF-7 = test: Growth inhibition, modified MTT assay, MCF-7; details: Homo sapiens, MCF7; MCF-7, MTT, mean of 3 independent tests
Protocol: as §1

Row | EC50 (PPAR-γ) | IC50 (T24) | IC50 (HepG2) | IC50 (MCF-7) | Compound | IC50 (SPC-A1)
1 | 5.75 µM | > 50 µM | > 50 µM | 42.8 µM | COc1ccc(OC(C)(Cc2ccc(Oc3cc(N4CCN(Cc5ccccc5)CC4)nc(N)n3)cc2)C(=O)O)cc1 (stereo not drawn) [Compound 30, 3-{4-[2-Amino-6-(4-benzyl-piperazin-1-yl)-pyrimidin-4-yloxy]-phenyl}-2-(4-methoxy-phenoxy)-2-methyl-propionic acid] | 38.9 µM
2 |  | > 50 µM | > 50 µM | > 50 µM | CC(Cc1ccc(Oc2cc(N3CCN(Cc4ccccn4)CC3)nc(N)n2)cc1)(Oc1ccccc1)C(=O)O (stereo not drawn) [Compound 36, 3-{4-[2-Amino-6-(4-pyridin-2-ylmethyl-piperazin-1-yl)-pyrimidin-4-yloxy]-phenyl}-2-methyl-2-phenoxy-propionic acid] | > 50 µM
3 |  | > 50 µM | > 50 µM | > 50 µM | CC(Cc1ccc(Oc2cc(N3CCN(C(=O)c4ccccc4)CC3)nc(N)n2)cc1)(Oc1ccccc1)C(=O)O (stereo not drawn) [Compound 21, 3-{4-[2-Amino-6-(4-benzoyl-piperazin-1-yl)-pyrimidin-4-yloxy]-phenyl}-2-methyl-2-phenoxy-propionic acid] | > 50 µM
4 | 4.27 µM | 29.1 µM | 38.1 µM | 15.1 µM | CC(Cc1ccc(Oc2cc(N3CCN(Cc4cccc(C(F)(F)F)c4)CC3)nc(N)n2)cc1)(Oc1ccccc1)C(=O)O (stereo not drawn) [Compound 10, 3-{4-{2-Amino-6-[4-(3-trifluoromethyl-benzyl)-piperazin-1-yl]-pyrimidin-4-yloxy}-phenyl}-2-methyl-2-phenoxy-propionic acid] | 25.1 µM
5 | 4.17 µM | > 50 µM | > 50 µM | 38 µM | Cc1cccc(CN2CCN(c3cc(Oc4ccc(CC(C)(Oc5ccccc5)C(=O)O)cc4)nc(N)n3)CC2)c1 (stereo not drawn) [Compound 9, 3-{4-{2-Amino-6-[4-(3-methyl-benzyl)-piperazin-1-yl]-pyrimidin-4-yloxy}-phenyl}-2-methyl-2-phenoxy-propionic acid] | 48.9 µM
6 | 2.57 µM | 40 µM | > 50 µM | > 50 µM | CC(Cc1ccc(Oc2cc(N3CCN(Cc4ccccc4)CC3)nc(N)n2)cc1)(Oc1ccc(-c2ccccc2)cc1)C(=O)O (stereo not drawn) [Compound 29, 3-{4-[2-Amino-6-(4-benzyl-piperazin-1-yl)-pyrimidin-4-yloxy]-phenyl}-2-(biphenyl-4-yloxy)-2-methyl-propionic acid] | 34.1 µM
7 |  | > 50 µM | > 50 µM | > 50 µM | COc1ccccc1C(=O)N1CCN(c2cc(Oc3ccc(CC(C)(Oc4ccccc4)C(=O)O)cc3)nc(N)n2)CC1 (stereo not drawn) [Compound 25, 3-{4-{2-Amino-6-[4-(2-methoxy-benzoyl)-piperazin-1-yl]-pyrimidin-4-yloxy}-phenyl}-2-methyl-2-phenoxy-propionic acid] | > 50 µM
8 | 2.24 µM | 37.7 µM | 30 µM | 34.2 µM | CC(Cc1ccc(Oc2cc(N3CCN(Cc4ccccc4)CC3)nc(N)n2)cc1)(Oc1ccc(C(F)(F)F)cc1)C(=O)O (stereo not drawn) [Compound 32, 3-{4-[2-Amino-6-(4-benzyl-piperazin-1-yl)-pyrimidin-4-yloxy]-phenyl}-2-methyl-2-(4-trifluoromethyl-phenoxy)-propionic acid] | 28 µM
9 | 3.31 µM |  |  |  | C[C@@](Cc1ccc(Oc2cc(N3CCN(Cc4ccccc4)CC3)nc(N)n2)cc1)(Oc1ccccc1)C(=O)O [Compound 3, S-3-{4-[2-Amino-6-(4-benzyl-piperazin-1-yl)-pyrimidin-4-yloxy]-phenyl}-2-methyl-2-phenoxy-propionic acid] | 
10 | 5.75 µM |  |  |  | C[C@@](Cc1ccc(Oc2cc(N3CCN(Cc4ccccc4)CC3)nc(N)n2)cc1)(Oc1ccccc1)C(=O)O (stereo in doubt) [Compound 4, R-3-{4-[2-Amino-6-(4-benzyl-piperazin-1-yl)-pyrimidin-4-yloxy]-phenyl}-2-methyl-2-phenoxy-propionic acid] | 
11 |  | 38.8 µM | 35.6 µM | 23.3 µM | CC(Cc1ccc(Oc2cc(N3CCN(Cc4cccc(C#N)c4)CC3)nc(N)n2)cc1)(Oc1ccccc1)C(=O)O (stereo not drawn) [Compound 26, 3-{4-{2-Amino-6-[4-(3-cyano-benzyl)-piperazin-1-yl]-pyrimidin-4-yloxy}-phenyl}-2-methyl-2-phe noxy-propionic acid] | 37.7 µM
12 | 4.68 µM | 22.6 µM | 29.7 µM |  | CC(Cc1ccc(Oc2cc(N3CCN(c4ccccc4)CC3)nc(N)n2)cc1)(Oc1ccccc1)C(=O)O (stereo not drawn) [Compound 22, 3-{4-[2-Amino-6-(4-phenyl-piperazin-1-yl)-pyrimidin-4-yloxy]-phenyl}-2-methyl-2-phenoxy-propionic acid] | 32.5 µM
13 | 6.03 µM | 12.5 µM | 26.5 µM | 7.9 µM | CC(Cc1ccc(Oc2cc(N3CCN(Cc4ccc(C(C)(C)C)cc4)CC3)nc(N)n2)cc1)(Oc1ccccc1)C(=O)O (stereo not drawn) [Compound 14, 3-{4-{2-Amino-6-[4-(4-tert-butyl-benzyl)-piperazin-1-yl]-pyrimidin-4-yloxy}-phenyl}-2-methyl-2-phenoxy-propionic acid] | 8.6 µM
14 |  | 39.4 µM | > 50 µM | 38.2 µM | CCCc1ccc(C(=O)N2CCN(c3cc(Oc4ccc(CC(C)(Oc5ccccc5)C(=O)O)cc4)nc(N)n3)CC2)cc1 (stereo not drawn) [Compound 24, 3-{4-{2-Amino-6-[4-(4-propyl-benzoyl)-piperazin-1-yl]-pyrimidin-4-yloxy}-phenyl}-2-methyl-2-phenoxy-propionic acid] | 43.7 µM

Row | Compound | EC50 (PPAR-γ) | IC50 (T24) | IC50 (HepG2) | IC50 (MCF-7) | IC50 (SPC-A1)
15 | CC(Cc1ccc(Oc2cc(N3CCN(CC4CCCCC4)CC3)nc(N)n2)cc1)(Oc1ccccc1)C(=O)O (stereo not drawn) [Compound 27, 3-{4-[2-Amino-6-(4-cyclohexylmethyl-piperazin-1-yl)-pyrimidin-4-yloxy]-phenyl}-2-methyl-2-phenoxy-propionic acid] | 5.37 µM | > 50 µM | 44.5 µM | > 50 µM | > 50 µM
16 | CC(Cc1ccc(Oc2cc(N3CCN(c4cccc(Cl)c4)CC3)nc(N)n2)cc1)(Oc1ccccc1)C(=O)O (stereo not drawn) [Compound 23, 3-{4-{2-Amino-6-[4-(3-chloro-phenyl)-piperazin-1-yl]-pyrimidin-4-yloxy}-phenyl}-2-methyl-2-phenoxy-propionic acid] | 4.37 µM | 15.2 µM | 20 µM | 11.8 µM | 12 µM
